Measured values published in patent US20110201818A1, “POLO-LIKE KINASE INHIBITORS” (TAKEDA PHARMACEUTICAL COMPANY LIMITED, priority 2007, published 2011).

biological target: T1, human PLK1 (Homo sapiens, UniProt P53350); test: PLK1 in vitro enzymatic activity assay (phosphorylation of alpha casein by recombinant PLK1); assay type: biochemical; conditions: recombinant FLAG-tagged PLK1, alpha casein substrate, 500 nmol/L ATP, 40 min at room temperature; read-out: pIC50 (PLK1) (converted)
T1 construct: FLAG (DYKDDDDK) (N); made in house; host or cells: Sf21 insect cells, recombinant baculovirus (pFASTBAC1, Bac-to-Bac)
T1 sequence (P53350 with tags, fused parts or gaps): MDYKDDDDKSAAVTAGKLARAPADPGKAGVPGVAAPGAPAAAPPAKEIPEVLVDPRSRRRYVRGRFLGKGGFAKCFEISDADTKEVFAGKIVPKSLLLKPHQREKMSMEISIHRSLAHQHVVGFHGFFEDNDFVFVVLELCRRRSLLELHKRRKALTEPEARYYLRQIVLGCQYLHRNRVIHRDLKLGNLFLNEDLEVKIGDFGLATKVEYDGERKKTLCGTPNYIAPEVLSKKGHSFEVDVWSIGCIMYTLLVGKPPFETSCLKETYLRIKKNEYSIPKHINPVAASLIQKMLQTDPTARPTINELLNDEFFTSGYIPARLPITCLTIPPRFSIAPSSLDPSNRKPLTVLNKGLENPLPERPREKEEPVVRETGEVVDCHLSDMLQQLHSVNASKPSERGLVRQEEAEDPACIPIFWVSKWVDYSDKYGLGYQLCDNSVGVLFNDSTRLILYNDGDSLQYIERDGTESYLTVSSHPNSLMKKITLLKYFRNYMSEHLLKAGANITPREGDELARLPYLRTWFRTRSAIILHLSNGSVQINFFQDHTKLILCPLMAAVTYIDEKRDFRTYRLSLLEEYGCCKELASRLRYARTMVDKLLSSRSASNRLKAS
Method: PCR was performed using the vector as a template. […] After XbaI and XhoI digestion of the PCR product, the fragment was subcloned into pFASTBAC1 (Invitrogen, USA). Recombinant baculoviruses were prepared according to the procedure of the Bac-to-Bac baculovirus expression system (Invitrogen, USA). Sf21 cells were purchased from Invitrogen and grown in Sf-900 II SFM medium containing 10% fetal bovine serum, 50 μg/mL gentamicin and 0.1% pluronic F-68 (Invitrogen, USA) at 28° C. For preparation of PLK1 enzyme, Sf21 cells were infected with recombinant baculoviruses and cultured at 28° C. for 72 h.
The inhibition of PLK1 by the compounds was determined with the following assay that measures the phosphorylation of alpha casein by recombinant PLK1. Kinase reactions were performed at room temperature for 40 min in the kinase reaction buffer (25 mmol/L HEPES, pH 7.5, 10 mmol/L magnesium acetate, 1 mmol/L dithiothreitol) containing 50 ng PLK1 enzyme, 0.1 μCi [γ-^32P]ATP, 500 nmol/L ATP and 3 μg alpha casein (MP Biomedicals Inc., USA) in a final volume of 50 μL. The incubation was terminated by the addition of 10% trichloroacetic acid (Wako, Japan). Phosphorylated proteins were filtrated in GF/C filter plates (Packard, USA) with a Cell harvester (Packard, USA) and washed out free [γ-^32P]-ATP with 250 mmol/L phosphoric acid. Then, the plates were air dried for 60 min at 45° C., followed by the addition of 20 μL of MicroScint-O (Packard, USA). The radioactivity was counted by a Top-count scintillation counter (Packard, USA).

SMILES | IC50
COc1cc(C(=O)NC2CNC2)c(F)cc1Nc1ncc2c(n1)N(C1CCCC1)CC(F)(F)C(=O)N2C [Compound 130, N-(azetidin-3-yl)-4-(9-cyclopentyl-7,7-difluoro-5-methyl-6-oxo-6,7,8,9-tetrahydro-5H-pyrimido[4,5-b][1,4]diazepin-2-ylamino)-2-fluoro-5-methoxybenzamide] | ≤ 2 nM
COc1cc(C(=O)NC2CCN(C)CC2)ccc1Nc1ncc2c(n1)N(C1CCCC1)CC(F)(F)CN2C [Compound 138, 4-(9-cyclopentyl-7,7-difluoro-5-methyl-6,7,8,9-tetrahydro-5H-pyrimido[4,5-b][1,4]diazepin-2-ylamino)-3-methoxy-N-(1-methylpiperidin-4-yl)benzamide] | > 2 nM
COc1cc(C(=O)N[C@@H]2CN3CCC2CC3)ccc1Nc1ncc2c(n1)N(C1CCCCC1)CC(F)(F)C(=O)N2C [Compound 46, (S)-4-(9-cyclohexyl-7,7-difluoro-5-methyl-6-oxo-6,7,8,9-tetrahydro-5H-pyrimido[4,5-b][1,4]diazepin-2-ylamino)-3-methoxy-N-(quinuclidin-3-yl)benzamide] | > 2 nM
CN1C(=O)C(F)(F)CN(C2CCCC2)c2nc(Nc3ccc4[nH]cc(C5=CCNCC5)c4c3)ncc21 [Compound 21, 9-Cyclopentyl-7,7-difluoro-5-methyl-2-(3-(1,2,3,6-tetrahydropyridin-4-yl)-1H-indol-5-ylamino)-8,9-dihydro-5H-pyrimido[4,5-b][1,4]diazepin-6(7H)-one] | > 2 nM
COc1cc(C(=O)N[C@H]2CN3CCC2CC3)ccc1Nc1ncc2c(n1)N(C1CCCCC1)CC(F)(F)C(=O)N2C [Compound 45, (R)-4-(9-cyclohexyl-7,7-difluoro-5-methyl-6-oxo-6,7,8,9-tetrahydro-5H-pyrimido[4,5-b][1,4]diazepin-2-ylamino)-3-methoxy-N-(quinuclidin-3-yl)benzamide] | ≤ 2 nM
COc1cc(C(=O)NC2CCN(C)CC2)ccc1Nc1ncc2c(n1)N(C1CCCC1)CC(C)(F)C(=O)N2C (stereo not drawn) [Compound 87, 4-(9-cyclopentyl-7-fluoro-5,7-dimethyl-6-oxo-6,7,8,9-tetrahydro-5H-pyrimido[4,5-b][1,4]diazepin-2-ylamino)-3-methoxy-N-(1-methylpiperidin-4-yl)benzamide] | ≤ 2 nM
CN1C(=O)C(F)(F)CN(C2CCCC2)c2nc(Nc3ccc4c(c3)NC(=O)C4)ncc21 [Compound 19, 9-cyclopentyl-7,7-difluoro-5-methyl-2-(2-oxoindolin-6-ylamino)-8,9-dihydro-5H-pyrimido[4,5-b][1,4]diazepin-6(7H)-one] | > 2 nM
CCN1CC(NC(=O)c2cc(OC)c(Nc3ncc4c(n3)N(C3CCCC3)CC(F)(F)C(=O)N4C)cc2F)C1 [Compound 131, 4-(9-cyclopentyl-7,7-difluoro-5-methyl-6-oxo-6,7,8,9-tetrahydro-5H-pyrimido[4,5-b][1,4]diazepin-2-ylamino)-N-(1-ethylazetidin-3-yl)-2-fluoro-5-methoxybenzamide] | ≤ 2 nM
CN1CCC(NC(=O)c2ccc(Nc3ncc4c(n3)N(C3CCCC3)CC(F)(F)C(=O)N4C)c(OC(F)(F)F)c2)CC1 [Compound 25, 4-(9-Cyclopentyl-7,7-difluoro-5-methyl-6-oxo-6,7,8,9-tetrahydro-5H-pyrimido[4,5-b][1,4]diazepin-2-ylamino)-N-(1-methylpiperidin-4-yl)-3-(trifluoromethoxy)-benzamide] | > 2 nM
CN1C(=O)C(F)(F)CN(C2CCCC2)c2nc(Nc3ccc4c(c3)NC(=O)CO4)ncc21 [Compound 18, 6-(9-cyclopentyl-7,7-difluoro-5-methyl-6-oxo-6,7,8,9-tetrahydro-5H-pyrimido[4,5-b][1,4]diazepin-2-ylamino)-2H-benzo[b][1,4]oxazin-3(4H)-one] | > 2 nM

Further lines, results first:

IC50 | SMILES
≤ 2 nM | COc1cc(C(=O)NC2CN(C)C2)ccc1Nc1ncc2c(n1)N(C1CCCCC1)CC(C)(F)C(=O)N2C (stereo not drawn) [Compound 90, 4-(9-Cyclohexyl-7-fluoro-5,7-dimethyl-6-oxo-6,7,8,9-tetrahydro-5H-pyrimido[4,5-b][1,4]diazepin-2-ylamino)-3-methoxy-N-(1-methylazetidin-3-yl)benzamide]
≤ 2 nM | COc1cc(C(=O)NN2CCN(C(=O)CN(C)C)CC2)ccc1Nc1ncc2c(n1)N(C1CCCCC1)CC(F)(F)C(=O)N2C [Compound 81, 4-(9-cyclohexyl-7,7-difluoro-5-methyl-6-oxo-6,7,8,9-tetrahydro-5H-pyrimido[4,5-b][1,4]diazepin-2-ylamino)-N-(4-(2-(dimethylamino)acetyl)piperazin-1-yl)-3-methoxybenzamide]
≤ 2 nM | COc1cc(C(=O)NC2CCN(C)CC2)ccc1Nc1ncc2c(n1)N(C1CCCCC1)CC(C)(F)C(=O)N2C (stereo not drawn) [Compound 89, 4-(9-Cyclohexyl-7-fluoro-5,7-dimethyl-6-oxo-6,7,8,9-tetrahydro-5H-pyrimido[4,5-b][1,4]diazepin-2-ylamino)-3-methoxy-N-(1-methylpiperidin-4-yl)benzamide]
≤ 2 nM | COc1cc(C(=O)NC2CC2)ccc1Nc1ncc2c(n1)N(C1CCCCC1)CC(F)(F)C(=O)N2C [Compound 76, 4-(9-cyclohexyl-7,7-difluoro-5-methyl-6-oxo-6,7,8,9-tetrahydro-5H-pyrimido[4,5-b][1,4]diazepin-2-ylamino)-N-cyclopropyl-3-methoxybenzamide]
≤ 2 nM | COc1cc(C(=O)NC2CN(C)C2)ccc1Nc1ncc2c(n1)N(C1CCCCC1)CC(F)(F)C(=O)N2C [Compound 35, 4-(9-Cyclohexyl-7,7-difluoro-5-methyl-6-oxo-6,7,8,9-tetrahydro-5H-pyrimido[4,5-b][1,4]diazepin-2-ylamino)-3-methoxy-N-(1-methylazetidin-3-yl)benzamide]
≤ 2 nM | COc1cc(C(=O)NC2CCNCC2)ccc1Nc1ncc2c(n1)N(C1CCCC1)CC(F)(F)C(=O)N2C [Compound 10, 4-(9-cyclopentyl-7,7-difluoro-5-methyl-6-oxo-6,7,8,9-tetrahydro-5H-pyrimido[4,5-b][1,4]diazepin-2-ylamino)-3-methoxy-N-(piperidin-4-yl)benzamide]
≤ 2 nM | COc1cc(C(=O)NN2CCN(C(C)C)CC2)ccc1Nc1ncc2c(n1)N(C1CCCCC1)CC(F)(F)C(=O)N2C [Compound 79, 4-(9-cyclohexyl-7,7-difluoro-5-methyl-6-oxo-6,7,8,9-tetrahydro-5H-pyrimido[4,5-b][1,4]diazepin-2-ylamino)-N-(4-isopropylpiperazin-1-yl)-3-methoxybenzamide]
≤ 2 nM | COc1cc(C(=O)N[C@H]2CCCN(C)C2)ccc1Nc1ncc2c(n1)N(C1CCCCC1)CC(F)(F)C(=O)N2C [Compound 74, (S)-4-(9-cyclohexyl-7,7-difluoro-5-methyl-6-oxo-6,7,8,9-tetrahydro-5H-pyrimido[4,5-b][1,4]diazepin-2-ylamino)-3-methoxy-N-(1-methylpiperidin-3-yl)benzamide]
≤ 2 nM | COc1cc(C(=O)NC2CCN(CCO)CC2)ccc1Nc1ncc2c(n1)N(C1CCCCC1)CC(F)(F)C(=O)N2C [Compound 44, 4-(9-cyclohexyl-7,7-difluoro-5-methyl-6-oxo-6,7,8,9-tetrahydro-5H-pyrimido[4,5-b][1,4]diazepin-2-ylamino)-N-(1-(2-hydroxyethyl)piperidin-4-yl)-3-methoxybenzamide]
≤ 2 nM | COc1cc(C(=O)NN2CCCCC2)ccc1Nc1ncc2c(n1)N(C1CCCCC1)CC(F)(F)C(=O)N2C [Compound 64, 4-(9-cyclohexyl-7,7-difluoro-5-methyl-6-oxo-6,7,8,9-tetrahydro-5H-pyrimido[4,5-b][1,4]diazepin-2-ylamino)-3-methoxy-N-(piperidin-1-yl)benzamide]
≤ 2 nM | CCN1CCC(NC(=O)c2ccc(Nc3ncc4c(n3)N(C3CCCCC3)CC(F)(F)C(=O)N4C)c(OC)c2)CC1 [Compound 36, 4-(9-cyclohexyl-7,7-difluoro-5-methyl-6-oxo-6,7,8,9-tetrahydro-5H-pyrimido[4,5-b][1,4]diazepin-2-ylamino)-N-(1-ethylpiperidin-4-yl)-3-methoxybenzamide]
> 2 nM | COc1cc(C(=O)N2CCN(C)CC2)ccc1Nc1ncc2c(n1)N(C1CCCCC1)CC(F)(F)C(=O)N2C [Compound 57, 9-cyclohexyl-7,7-difluoro-2-(2-methoxy-4-(4-methylpiperazine-1-carbonyl)-phenylamino)-5-methyl-8,9-dihydro-5H-pyrimido[4,5-b][1,4]diazepin-6(7H)-one]
≤ 2 nM | COc1cc(C(=O)NN2CCOCC2)ccc1Nc1ncc2c(n1)N(C1CCCCC1)CC(F)(F)C(=O)N2C [Compound 65, 4-(9-cyclohexyl-7,7-difluoro-5-methyl-6-oxo-6,7,8,9-tetrahydro-5H-pyrimido[4,5-b][1,4]diazepin-2-ylamino)-3-methoxy-N-morpholinobenzamide]
≤ 2 nM | COc1cc(C(=O)NC2CN(C(C)=O)C2)ccc1Nc1ncc2c(n1)N(C1CCCCC1)CC(F)(F)C(=O)N2C [Compound 69, N-(1-acetylazetidin-3-yl)-4-(9-cyclohexyl-7,7-difluoro-5-methyl-6-oxo-6,7,8,9-tetrahydro-5H-pyrimido[4,5-b][1,4]diazepin-2-ylamino)-3-methoxybenzamide]
